One series deals with Pisum sativum. In words: Phytotoxicity against pea leaves assessed as necrotic lesion at 15 ug/15 ul after 48 hrs by leaf puncture assay. The format is functional, organism-based. Conditions: Lathyrus oleraceus.
For another series, the system named is Fabaceae. In words: Phytotoxicity against beans leaves assessed as necrotic lesion at 15 ug/15 ul after 48 hrs by leaf puncture assay. The format is functional, organism-based.
Series [1] relates to Artemia salina. In words: Toxicity in Artemia salina at 50 ug/ml. The format is organism-based. Conditions: in vivo.
Series [2] relates to Artemia salina. In words: Toxicity in Artemia salina at 5 ug/ml. The settings on record: in vivo. The format is organism-based.
The test system of the next series is Geotrichum candidum. In words: Antifungal activity against Geotrichum candidum up to 120 ug/ml. The format is functional, organism-based.

Activity calls are given as the source filed them. The rule behind the calls is not given here.

On to `C/C=C/C=C/C(=O)O[C@H]1CC/C=C/[C@@H](O)[C@H](O)[C@@H](CCC)OC1=O`, for which the Activity result with Pisum sativum was “Toxic”; in the series with Fabaceae, “Toxic”; in the series on Artemia salina [1], “Toxic”; in the series with Artemia salina [2], “Non-toxic”. Also, the outcome in the series with Geotrichum candidum was inactive.
Take `C/C=C/C=C/C(=O)O[C@H]1CCCC[C@H](O)[C@H](O)[C@@H](CCC)OC1=O`: the Activity entry in the series on Pisum sativum was “Toxic”; with Fabaceae, “Toxic”; with Artemia salina [2], “Non-toxic”. For the same compound, in the series with Geotrichum candidum, the outcome was inactive.
Consider `C/C=C/C=C/C(=O)O[C@H]1CC/C=C/[C@H](O)[C@H](O)[C@@H](CCC)OC1=O` [PINOLIDOXIN], for which, in the series on Artemia salina [2], the Activity result is “Non-toxic”. In the series with Geotrichum candidum, the outcome was inactive.
On to `C/C=C/C=C/C(=O)O[C@H]1CCC2OC2[C@H](O)[C@H](O)[C@@H](CCC)OC1=O` (some centres undefined), for which the values for the Activity result in the series with Artemia salina [1] and with Artemia salina [2] were “Toxic” and “Non-toxic”, respectively. Besides, the outcome in the series with Geotrichum candidum was inactive.

The record behind these values is ChEMBL document CHEMBL1147395, “Three New Toxic Pinolidoxins from Ascochyta pinodes” (J Nat Prod, 1993).
